In patent US20240307550A1, “MODULATION OF CD46 CELL SURFACE MARKER IN BOTH ANDROGEN RECEPTOR-POSITIVE AND NEGATIVE CANCER CELLS” (The Regents of the University of California, priority 2021, published 2024):
One block for each molecule: values may come before it.

Assays:
[1] = test system: CD46 cell surface expression, 22Rv1 cells; assay: CD46 cell surface expression by flow cytometry using YS5, 22Rv1 cells; type: cell-based
Protocol: (§1) AR positive 22Rv1 cells were exposed to enzalutamide (5 μM) and CD46 cell surface expression was measured by flow cytometry using YS5. As a reference, prostate specific membrane antigen (PSMA) was also measured at the same time. […] MFI: median fluorescence intensity. See right portion of FIG. 1.
(§2) Methods: 22Rv1 and Du145 cells were exposed to varying concentrations of the Stat3 inhibitor C188-9 and the glucocorticoid receptor inhibitor mifepristone for 7-10 days at 37° C. in culture media, and cell surface CD46 expression is detected by flow cytometry using the anti-CD46 antibody YS5 followed by AlexaFluo-617 labeled anti-human Fc secondary antibody. MFI (median fluorescence intensity) was recorded and analyzed by Student t-test (for two group comparison) and One-way ANOVA (for group number >2).

[2] = test system: CD46 cell surface expression, Du145 cells; assay: CD46 cell surface expression by flow cytometry, Du145 cells; type: cell-based; details: 7 days; for CD46 cell surface expression (MFI): Du145 cells, 37° C.
Protocol: as §2

LNCaP-C4-2B xenografts = type: in vivo; details: mice with subcu LNCaP-C4-2B xenografts; 50 mg/kg daily for 4 weeks from day 10; single iv 3 mg/kg CD46 ADC on Day-14; 69 days
Protocol: An in vivo tumor implantation mouse model was studied to measure the effect of pre-treatment with enzalutamide followed by andi-CD46 ADC treatment. LNCaP-C4-2B cells were implanted in mice subcu on Day-0. Starting on day 10, the mice were administered with 50 mg/kg, daily, for 4 weeks. […] FIG. 7 depicts the survival rate of the mice.

[3] = test system: CD46 cell surface expression, VCaP cells; assay: CD46 cell surface expression by flow cytometry using YS5, VCaP cells; type: cell-based; details: AR positive VCaP cells, enzalutamide 5 μM, versus control cells
Protocol: AR positive VCaP cells were exposed to enzalutamide (5 μM) and CD46 cell surface expression was measured by flow cytometry using the YS5 antibody. MFI: median fluorescence intensity.

[4] = test system: CD46 antigen density, LNCaP-C4-2B cells; assay: CD46 antigen density by quantitative flow cytometry, LNCaP-C4-2B cells; type: cell-based; details: 10 μM, 7 days
Description: CD46 antigen density was *p<0.05; **p<0.01 (p=0.0091), Student's test, duplicates.

[5] = test system: prostate specific membrane antigen (PSMA), 22Rv1 cells; assay: PSMA measured as reference by flow cytometry, 22Rv1 cells; type: cell-based; details: AR positive 22Rv1 cells, enzalutamide 5 μM
Protocol: as §1

[6] = test system: CD46 cell surface antigen density, H660 cells; assay: CD46 cell surface antigen density by quantitative flow cytometry, H660 cells; type: cell-based; details: AR-negative neuroendocrine H660 cells, 10 μM abiraterone
Protocol: The neuroendocrine prostate cancer cell line H660, which is AR-negative, was exposed to an ASI (in this case, 10 μM abiraterone), and CD46 cell surface antigen density was measured by quantitative flow cytometry. Over 2-fold increase of CD46 antigen density was found following ASI treatment.

[7] = biological target: T1, CD46 on the surface of prostate cancer cells (human, UniProt P15529 35-392); assay: cell-based or functional assay
T1 sequence (looked up): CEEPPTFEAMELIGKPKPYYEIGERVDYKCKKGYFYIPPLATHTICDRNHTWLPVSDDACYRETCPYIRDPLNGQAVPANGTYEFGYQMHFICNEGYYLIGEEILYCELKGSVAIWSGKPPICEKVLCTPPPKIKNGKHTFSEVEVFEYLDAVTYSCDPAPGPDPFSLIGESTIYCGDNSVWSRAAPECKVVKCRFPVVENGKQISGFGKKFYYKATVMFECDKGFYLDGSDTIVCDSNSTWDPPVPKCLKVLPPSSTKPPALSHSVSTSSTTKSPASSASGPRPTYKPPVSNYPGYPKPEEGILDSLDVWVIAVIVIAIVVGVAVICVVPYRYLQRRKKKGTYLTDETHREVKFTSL

[8] = biological target: T1, CD46 on the surface of prostate cancer …; assay: flow cytometry on VCaP and 22Rv1 cells (figure legend)
Protocol: AR positive VCaP cells were exposed to enzalutamide (5 μM) and CD46 cell surface expression was measured by flow cytometry using the YS5 antibody. MFI: median fluorescence intensity. […] AR positive 22Rv1 cells were exposed to enzalutamide (5 μM) and CD46 cell surface expression was measured by flow cytometry using YS5. As a reference, prostate specific membrane antigen (PSMA) was also measured at the same time. Enzalutamide-induced upregulation was unique to CD46 but not PSMA. MFI: median fluorescence intensity. See right portion of FIG. 1.
AR positive 22Rv1 cells were exposed to enzalutamide (5 μM) and CD46 cell surface expression was measured by flow cytometry using YS5. As a reference, prostate specific membrane antigen (PSMA) was also measured at the same time. Enzalutamide-induced upregulation was unique to CD46 but not PSMA. MFI: median fluorescence intensity. See right portion of FIG. 1.

Molecule: CC#C[C@]1(O)CC[C@H]2[C@@H]3CCC4=CC(=O)CCC4=C3[C@@H](c3ccc(N(C)C)cc3)C[C@@]21C [mifepristone]
CD46 cell surface expression (MFI) ([1]; 22Rv1 cells, mifepristone 2.5 μM, 37° C., 10 days, Student t test): not significant
CD46 cell surface expression (MFI) ([2]; mifepristone high concentrations (20 and 50 PM)): inhibits CD46 cell surface presentation

Molecule: CNC(=O)c1ccc(N2C(=S)N(c3ccc(C#N)c(C(F)(F)F)c3)C(=O)C2(C)C)cc1F [enzalutamide]
CD46 cell surface expression (MFI) ([1]; AR positive 22Rv1 cells, enzalutamide 5 μM): upregulation was unique to CD46
tumor response / overall survival (Kaplan-Meier) (LNCaP-C4-2B xenografts): resistant to enz treatment alone
CD46 cell surface expression (MFI) [3]: significantly more CD46 expression than control cells
CD46 cell surface expression ([2]; AR-null Du145 cells, enzalutamide 5 μM, p<0.0001, n=4): increase significantly
CD46 antigen density [4]: increased
PSMA expression (MFI) [5]: not PSMA

Molecule: COc1ccc(S(=O)(=O)Nc2cc(-c3c(O)ccc4ccccc34)c(O)c3ccccc23)cc1 [C188-9, N-(1′, 2-Dihydroxy-1,2′-binaphthalen-4′-yl)-4-methoxybenzenesulfonamide]
CD46 cell surface expression (MFI) ([1]; 22Rv1 cells, C188-9 low/mid concentrations (2.5 and 5 μM), 37° C., 10 days): stimulates CD46 cell surface presentation
CD46 cell surface presentation (MFI) ([1]; prostate cancer cells (22Rv1, 10 μM, 10 days, single experiment, FIG. 12; Du145, FIG. 13), C188-9 high concentrations (>10 μM)): inhibits
CD46 cell surface expression (MFI) ([2]; C188-9 10, 20 and 50 μM): inhibits CD46 cell surface presentation

Molecule: C[C@]12CC[C@H](O)CC1=CC[C@@H]1[C@@H]2CC[C@]2(C)C(c3cccnc3)=CC[C@@H]12 [abiraterone]
increase of CD46 antigen density [6]: Over 2 fold

B1: CD46 ADC (YS5-MC-vc-PAB-MMAF) (antibody, human IgG1, lambda, V domains shown)
VH: QVQLVQSGGGVVQPGRSLRLACAASGLTVNNYAMHWVRQAPGKGLEWVAVISYDGNNKYYADSVKGRFTISRDNSKNTLYLQMNSLRAEDTAVYYCAKGGGYFDLWGRGTLVTVSS
VL: QSVLTQPPSVSGAPGQRVTISCTGSSSNIGAGYDVHWYQQLPGTAPKLLIYGNNNRPSGVPDRFSGSKSGTSASLAITGLQAEDEADYYCSSYTSGTWLFGGGTKLTVLG
modifications: MC-vc-PAB-MMAF drug-linker conjugated; sites and drug to antibody ratio not stated for this conjugate
EC50 of cell killing, LNCaP-C4-2B cells pre-exposed to abiraterone against cells not pre-exposed [7]: 17 fold

binding result [8]: binds
B2: YS5 anti-CD46 antibody (antibody, human IgG1, lambda, V domains shown)
VH: B1 VH
VL: B1 VL
notes: also called YS5FL; anti-CD46 antibody YS5
